From patent publication US20250171404A1, “PCNA INHIBITORS AND USES THEREOF” (CITY OF HOPE, priority 2022, published 2025)
Blank lines part the entries; values can stand above or below the molecule they belong to.

What was measured:
[1] = Cell growth IC50, screening of AOH1160 analogs (cell line not given); assay type: cell-based; conditions: read-out: IC50 values
Method: (§1) FIG. 29. IC50 data for select compounds. The indicated cell lines were seeded at 10^4 cells per well in a 96 well plate. After allowing to attach to the plate overnight, cells were treated with various concentrations of the indicated compounds in triplicates for 72 hrs. The cell growth was measured by an SRB assay. The cell abundances under each treatment condition relative to the baseline were averaged and graphed ±S.D. The baseline is defined as the median value of the cell abundances under the treatment by the two lowest compound concentrations. The IC50 was calculated by the Prism program.

SK-N-AS = assay: Cell growth IC50, screening of AOH1160 analogs; assay type: cell-based; conditions: Homo sapiens, read-out: IC50 values
Method: as §1

PCNA = target: T1, PCNA (Homo sapiens, UniProt P12004); assay: Thermal denaturation (thermal shift) assay; assay type: binding; conditions: FIG. 24
T1 construct: made in house; host or cells: E. coli Rosetta 2 (DE3)
T1 sequence (P12004 whole entry): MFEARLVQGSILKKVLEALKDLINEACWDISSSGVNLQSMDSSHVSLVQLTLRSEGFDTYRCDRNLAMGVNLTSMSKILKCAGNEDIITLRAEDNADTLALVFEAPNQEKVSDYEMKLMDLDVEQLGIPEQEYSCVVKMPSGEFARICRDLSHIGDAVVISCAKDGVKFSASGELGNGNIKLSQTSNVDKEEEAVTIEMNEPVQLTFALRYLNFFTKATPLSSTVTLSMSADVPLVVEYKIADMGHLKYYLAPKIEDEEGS
Method: FIGS. 1A-1E. AOH1160 analog interactions with PCNA. FIG. 1A: Thermal shift assay: Normalized inverse derivative thermal denaturation plots of 9 μM apo-PCNA with DMSO control is depicted with a black dashed line and PCNA in the presence of 10 μM AOH1160LE is shown in light grey and 30 μM AOH1160LE in dark grey. ΔTm values are provided. FIG. 1B: As described in FIG. 1A, in the presence of 10 μM AOH1996 depicted in light grey and 30 μM AOH1996 depicted in dark grey. FIG. 1C: Four monomers (chains A-D) of PCNA are present in the asymmetric unit of the crystal. Chains A, B, and C form the homotrimer biological unit, while chain Dis orientated perpendicular to the plane of the ring, below the interface of chains B and C and it belongs to an adjacent ring. Inset: Three molecules of AOH1160LE bind in and adjacent to the PIP box cavity of each of the PCNA ring subunits. The omit map, gray mesh, is contoured to 1.56. Two PCNA monomer subunits from adjacent rings stack against each other, placing the PIP box and IDCLs of each subunit in opposing directions. FIG. 1D: The three AOH1160LE molecules are shown as stick figure representations. Two of the compounds, left and central, bind into the PIP box cavity at known PCNA-partner/compound interaction sites. […] The electrostatic surface maps are depicted with Poisson-Boltzmann electrostatic surface potentials shown in dark grey and light grey, corresponding to −10 to +10 kT/e respectively.
Targeting the PIP box and APIM binding domain of PCNA. AOH1160, a small molecule PCNA ligand, targets the cancer-distinct L126-Y133 region of PCNA (Malkas et al., 2006) and is selectively toxic to cancer cells (Gu et al., 2018). […]
Thermal denaturation assay for PCNA-AOH1996 interaction. […] Fluorescence intensity was measured within the excitation/emission ranges 470-505/540-700 nm.

RKO = assay: Cell growth IC50, screening of AOH1160 analogs; assay type: cell-based; conditions: Homo sapiens, read-out: IC50 values
Method: as §1

HTC-116 = assay: Cell growth IC50, screening of AOH1160 analogs; assay type: cell-based; conditions: HTC-116; read-out: IC50 values
Method: as §1

OVCAR8 = assay: Cell growth IC50, screening of AOH1160 analogs; assay type: cell-based; conditions: Homo sapiens, OVCAR-8; OVCAR8; read-out: IC50 values
Method: as §1

SK-N-BE(2)c = assay: Cell growth IC50, screening of AOH1160 analogs; assay type: cell-based; conditions: Homo sapiens
Method: as §1

γH2A.X = γH2A.X Western blot (DNA damage marker); assay type: cell-based, human; conditions: SK-N-AS; 500 nM AOH1996 and/or 50 μM DRB overnight
[2] = target: T2, PCNA interaction with RPB1 (Homo sapiens, UniProt P12004); assay: PCNA interaction with RPB1 (immunoprecipitation, western blotting); assay type: cell-based; conditions: SK-N-AS
T2 construct: expressed in transfected cells; host or cells: SK-N-AS (FLAG-RPB1 exogenous; PCNA endogenous)
Method: FIGS. 5A-5E. Modulation of PCNA interaction with RNA polymerase II. FIG. 5A: Chromatin-bound (CB) proteins were fractioned from HEK293T cells expressing FLAG-tagged PCNA after the cells were treated with or without 500 nM AOH1996. Proteins in complex with FLAG-PCNA were immune-precipitated and analyzed by mass spectrometry. Shown are numbers of proteins whose abundances were altered (grey) or unaltered (black) by more than 2-fold by AOH1996 treatment. FIG. 5B: SK-N-AS cells exogenously expressing a FLAG-tagged RPB1 gene were fractioned before and after being treated with 500 nM AOH1996 overnight. PCNA in complex with chromatin-bound (CB) FLAG-RBP1 were analyzed by western blotting. FIG. 5C: Human SK-N-AS cells were treated with UV in the presence or absence of AOH1996 (AOH) or R9-caPep (caPep). Whole cell extracts were analyzed by western blotting. FIG. 5D: Cells exogenously expressing FLAG-tagged wildtype RPB1 or FLAG-tagged APIM-mutant RPB1 gene were fractioned. PCNA in complex with chromatin-bound (CB) FLAG-RBP1 were analyzed by western blotting. FIG. 5E: HEK293T cells were transiently transfected with a FLAG-tagged wildtype RPB1 (APIM WT) gene or mutant RPB1 gene (APIM mutant). The intracellular MCM7 and RBP1 (both the hypo-phosphorylated RNAPIIa and hyper-phosphorylated RNAPIIo forms) were analyzed by western blot after cells were treated by the indicated agents and/or UV.
Modulating PCNA interaction with transcription machinery.
Cell fractionation and immunoprecipitation. Cells were fractionated as previously described (Li et al., 2018). Briefly, intact nuclei isolated following osmotic lysis were homogenized using a 21 G needle. Chromatin was pelleted by centrifugation and incubated overnight at 4° C. with benzonase in two volumes of nuclease buffer (20 mM HEPES pH 7.5, 1.5 mM MgCl2, 1 mM EDTA, 150 mM KCl, 10% glycerol, 0.5 U μl-1 benzonase). The resulting supernatant was collected as the CB fraction. Alternatively, we sequentially incubated the chromatin pellet with RNase A and benzonase and collected the supernatants after each digestion as the CB:RNA+ and CB:RNA− fractions, respectively (Li et al., 2018).

Molecule: O=C(CNC(=O)c1cccc2ccccc12)Nc1ccccc1C(=O)Nc1ccccc1 [AOH1160-2AB, N-(2-oxo-2-((2-(phenylcarbamoyl)phenyl)amino)ethyl)-1-naphthamide]
IC50 [1]: > 10 µM

IC50 (SK-N-AS): 0.156 µM
Molecule: O=C(CNC(=O)c1cccc2ccccc12)Nc1ccccc1Oc1ccc(O)cc1 [AOH1160-4′-OH]

Molecule: O=C(O)CC[C@@H](NC(=O)c1cccc2ccccc12)C(=O)Nc1ccccc1Oc1ccccc1 [AOH1160DE]
IC50 [1]: > 10 µM

Molecule: NCCCC[C@@H](NC(=O)c1cccc2ccccc12)C(=O)Nc1ccccc1Oc1ccccc1 [AOH1160DK]
IC50 [1]: > 10 µM

Molecule: CC(C)[C@@H](NC(=O)c1cccc2ccccc12)C(=O)Nc1ccccc1Oc1ccccc1 [AOH1160DV, (R)—N-(3-methyl-1-oxo-1-((2-phenoxyphenyl)amino)butan-2-yl)-1-naphthamide]
IC50 [1]: > 10 µM

Molecule: NCCCC[C@H](NC(=O)c1cccc2ccccc12)C(=O)Nc1ccccc1Oc1ccccc1 [AOH1160LK]
IC50 [1]: > 10 µM

ΔTm (TSA data) (PCNA): very similar ΔTm compared to AOH1996
Molecule: CC(C)[C@H](NC(=O)c1cccc2ccccc12)C(=O)Nc1ccccc1Oc1ccccc1 [AOH1160LV, (S)—N-(3-methyl-1-oxo-1-((2-phenoxyphenyl)amino)butan-2-yl)-1-naphthamide]
IC50 [1]: > 10 µM

IC50 (OVCAR8): > 10 µM
Molecule: O=C(CNC(=O)c1cccc2ccccc12)Nc1ccccc1Nc1ccccc1 [AOH1160NH]
IC50 (RKO): > 10 µM
IC50 (HTC-116): > 10 µM

Molecule: O=C(CNC(=O)c1cccc2ccccc12)Nc1ccccc1S(=O)(=O)c1ccccc1 [AOH1160SO2, N-(2-oxo-2-((2-(phenylsulfonyl)phenyl)amino)ethyl)-1-naphthamide]
IC50 [1]: > 10 µM

Molecule: O=C(CCNC(=O)c1cccc2ccccc12)Nc1ccccc1Oc1ccccc1 [AOH1160e, N-(3-oxo-3-((2-phenoxyphenyl)amino)propyl)-1-naphthamide]
IC50 [1]: > 10 µM

Molecule: O=C(Nc1ccccc1Oc1ccccc1)c1cccc2ccccc12 [AOH1160t]
IC50 [1]: > 10 µM

Molecule: O=C(CNC(=O)c1nccc2ccccc12)Nc1ccccc1Oc1ccncc1 [AOH1167]
IC50 [1]: 42 µM

Molecule: COc1cccc(Oc2ccccc2NC(=O)CNC(=O)c2ccc(-c3ccccc3)cc2)c1 [AOH1996BiNph, N-(2-((2-(3-methoxyphenoxy)phenyl)amino)-2-oxoethyl)-[1,1′-biphenyl]-4-carboxamide]
IC50 [1]: > 10 µM

Molecule: COc1cccc(Oc2ccccc2NC(=O)[C@H](CCC(=O)O)NC(=O)c2cccc3ccccc23)c1 [AOH1996LE, (S)-4-(1-naphthamido)-5-((2-(3-methoxyphenoxy)phenyl)amino)-5-oxopentanoic acid]
IC50 [1]: > 10 µM

IC50 (OVCAR8): 2.6 µM
Molecule: O=C(CNC(=O)c1cccc2ccccc12)Nc1ccccc1Sc1cccc(C(F)(F)F)c1 [AOH1996S-3CF3, N-(2-oxo-2-((2-((3-(trifluoromethyl)phenyl)thio)phenyl)amino)ethyl)-1-naphthamide]
IC50 (RKO): 8 µM
IC50 (HTC-116): 4.6 µM

IC50 (OVCAR8): 3.4 µM
Molecule: O=C(CNC(=O)c1cccc2ccccc12)Nc1ccccc1Sc1ccc(C(F)(F)F)cc1 [AOH1996S-4CF3, N-(2-oxo-2-((2-((4-(trifluoromethyl)phenyl)thio)phenyl)amino)ethyl)-1-naphthamide]
IC50 (RKO): 10 µM
IC50 (HTC-116): 4.6 µM

IC50 (OVCAR8): 0.291 µM
Molecule: Cc1ccc(Sc2ccccc2NC(=O)CNC(=O)c2cccc3ccccc23)cc1 [AOH1996S-4CH3, N-(2-oxo-2-((2-(p-tolylthio)phenyl)amino)ethyl)-1-naphthamide]
IC50 (RKO): 0.503 µM
IC50 (HTC-116): 0.345 µM

Molecule: Cc1ccc(Sc2ccccc2NC(=O)[C@H](CCC(=O)O)NC(=O)c2cccc3ccccc23)cc1 [AOH1996SLE-4CH3, (S)-4-(1-naphthamido)-5-oxo-5-((2-(p-tolylthio)phenyl)amino) pentanoic acid]
IC50 [1]: > 10 µM

Molecule: COc1cccc(Oc2ccccc2NC(=O)CNC(=O)Cc2cccc3ccccc23)c1 [AOH1996eNph, N-(2-(3-methoxyphenoxy)phenyl)-2-(2-(naphthalen-1-yl)acetamido) acetamide]
IC50 [1]: > 10 µM

Molecule: COc1cccc(Oc2ccccc2NC(=O)CNC(=O)CCc2cccc3ccccc23)c1 [AOH1996eeNph, N-(2-((2-(3-methoxyphenoxy)phenyl)amino)-2-oxoethyl)-3-(naphthalen-1-yl) propanamide]
IC50 [1]: > 10 µM

Molecule: COc1cccc(Oc2ccccc2NC(=O)c2cccc3ccccc23)c1 [AOH1996t, N-(2-(3-methoxyphenoxy)phenyl)-1-naphthamide]
IC50 [1]: > 10 µM

IC50 (SK-N-BE(2)c): 1.03 µM
IC50 (SK-N-AS): 1.12 µM
Molecule: Cc1ccccc1Oc1ccccc1NC(=O)CNC(=O)c1cccc(C)c1C [AOH-DMB-2CH3, 2,3-dimethyl-N-(2-oxo-2-((2-(o-tolyloxy)phenyl)amino)ethyl)benzamide]

Molecule: OC[C@H]1O[C@@H](n2cnc3cc(Cl)c(Cl)cc32)[C@H](O)[C@@H]1O [DRB, reference compound]
γH2A.X levels, AOH1996 with DRB (γH2A.X): can suppress the DNA damage induced by AOH1996

PCNA interaction with RPB1 ([2]; chromatin-bound): blocked PCNA interaction with RPB1
RPB1 levels ([2]; whole cell extracts): increased RPB1 levels
Molecule: caPep: contains the L126-Y133 sequence of PCNA that overlaps APIM-interacting region of PCNA (LGIPEQEY; UniProt P12004 126-133, looked up, fragment) [reference compound]
